Reference: patent US20230346884A1, “Molecular Targets for Modulation of Dissociative and Associative States” (The Board of Trustees of the Leland Stanford Junior …, priority 2020, published 2023)
“Also recorded” adds a separate entry of the source.

Key:
mice = assay: Open field test; assay type: in vivo, mouse; conditions: 5 min; vs saline; doses of b234
Excerpt: Open Field Test: Mice were placed in an evenly illuminated 50 cm×50 cm open field test box. Mouse position was captured using a webcam and Viewer software (Biobserve).

mouse = conditions: cited from earlier work
humans = conditions: human; cited from earlier work
[1] = tested on: retrosplenial cortex (RSP); assay: Fiber photometry in RSP (GCaMP6m); assay type: in vivo, mouse
Excerpt: A 405 nm and 470 nm LED illumination (Thorlabs) was combined (425 nm longpass, Thorlabs DMLP425) and coupled into a fiber optic patch cord (400 μm diameter, 0.48 NA, Doric Lenses) using a longpass dichroic (505 nm, Thorlabs DMLP505) and a fixed-focused coupler/collimator with a standard FC connector (F240FC-A, NA 0.51, f =7.9 mm)^47,48. Each illumination channel was frequency modulated using the sync output from a lock-in amplifier (SR810 DSP, Stanford Research Systems). GCaMP fluorescence was collected through the same patchcord and delivered through a bandpass emission filter (Semrock, FF01-520/35) onto a NewFocus 2151 femtowatt silicon photoreceiver (Newport, DC Low mode). The signal from the photoreceiver was split into each lock-in amplifier, and the filtered outputs were digitized at 5 kHz using a NIDAQ (National Instruments PCIe-6353) and saved using a MATLAB (MathWorks) acquisition script.
Analysis was performed using custom MATLAB (MathWorks) scripts. Widefield imaging videos were registered to a 2D top-projection atlas generated from the annotated Allen Brain Atlas volume, version CCFv2, in MATLAB (MathWorks), using an affine transformation computed from four manually selected control points. Each video was DF/F normalized, using the median for each pixel over the entire time series as F. The 410 nm channel was then temporally smoothed using a moving average (width=400 ms). The smoothed 410 nm DF/F signal for each pixel was regressed onto the 488 nm DF/F signal for the corresponding pixel, and the regression coefficients were used to scale the 410 nm channel to the 488 nm channel. This scaled 410 nm DF/F signal was then subtracted from the 488 nm DF/F signal to produce a normalized signal for each pixel. For quantification, activity traces were extracted from points centered in five cortical regions (visual, somatosensory, parietal, motor, retrosplenial) on the left hemisphere of the brain. The video data was Gaussian smoothed spatially (radius=2 pixels). Similarly, for fiber photometry recordings, the 410 nm signal was regressed onto the 488 nm signal, the 410 nm signal was scaled by the regression coefficients, and then subtracted from the 488 nm signal.
Each trace (corresponding to either a fiber photometry signal, a cellular two-photon signal, a widefield regional centroid, a widefield pixel, an sEEG trace, or a smoothed spike rate Neuropixels trace) was z-scored, and the power spectral density (PSD) was then estimated using Welch's method (pwelch( ) in Matlab), with a window size of 10*fs (15*fs for human sEEG) where fs is the sampling rate of the signal. The average band power within a specified band (i.e. 1-3 Hz) was then computed by integrating the PSD estimate (bandpower in Matlab). For displaying the traces of individual cells, traces were each zscored by subtracting the mean value of the trace (across the whole recorded time window) and dividing by the standard deviation of the trace. Unless otherwise indicated, the PSD was computed across the time window from minutes 10 to 11 post-injection.
Stereotaxic Surgery: Adult male and female HCN1^f/f, NR1^f/f, or wildtype C57/B16 were injected bilaterally in two retrosplenial locations (AP −3.1 and −3.4, ML+/−0.5, DV −0.5) with 1 uL of AAV8-Ef1a-mCherry-IRES-Cre (titer 5E11) and AAVdj-Ef1a-DIO-GCaMP6m (titer 1E13). A 400-micron optical fiber was implanted over one injection location. At least four weeks were allowed for viral expression and gene disruption before photometry recording. For gene knockout behavior experiments, injections of AAVdj-Ef1a-Cre were made at (AP −2.7, −3.1 and −3.5, ML+/−0.5, DV −1.35 and −0.70). For gene knockout control behavioral experiments, two retrosplenial injections of AAVdj-Efla-Cre were made in experimental animals.

deep RSP neurons = assay: 32-channel two-shank silicon probe recording in deep RSP; assay type: in vivo, mouse; conditions: 50 mg/kg ketamine
Description: Mice were anesthetized with isoflurane, a small craniotomy (˜2 mm diameter) was performed above retrosplenial cortex, and a custom head-plate implanted. The dura was gently removed, and then covered with Kwik-Cast Sealant (World Precision Instruments). A skull screw was implanted and secured with cement in the right frontal skull bone. Mice were given 1-2 hours to recover. […] The deepest tip of the electrode was 800-1000 μm from the brain surface for all recordings.
Extracellular electrophysiological data were recorded using 32 channel acute silicon probes (ASSY-37 P-1, Cambridge Neurotech) acquired at 30 kHz. Following common average referencing, well-isolated single units were identified using KiloSort and Phy. Data were analyzed using custom Matlab scripts. Instantaneous firing rate was computed using 1 ms bins. We used a Hidden Markov Model with two states to label ON and OFF states. ON states were considered to represent bursts, and OFF states were inter-burst intervals. We fit the emission and transition parameters of the model using the Baum-Welch algorithm (Matlab hmmtrain with a convergence threshold of 1 e-6 and initial guesses of transition matrix: [0.95, 0.05; 0.05, 0.95] and emission: [0.5, 0.5; […]]), and then estimated the state assignment at each time point using the Viterbi algorithm (Matlab hmmviterbi). Various initial guesses were tested, and they yielded the same or similar model fit. For population analyses, a bin size of 2 was used. In FIG. 10, we are looking at the number of spikes in each burst, which can vary depending on the neuron being recorded, so we included every burst for every neuron. To quantify the consistency of the sequential onset of activation across bursts, we ranked each unit by its onset time for each burst. We then ordered the units according to their median rank across bursts. For each burst, we fit a linear model between the ranking in that burst and the median rank. The distribution of correlation coefficients was then plotted across bursts for each mouse and treatment condition.

What does the source list for `CNC1(c2ccccc2Cl)CCCCC1=O` (stereo not shown) [ketamine]?
Open-field locomotion velocity (mice): decreased velocity; Doses for anti-depressant effects (mouse): 3 to 10 mg/kg; Dose at which potent dissociation is consistently reported (humans): 2 to 3 mg/kg; Doses for anti-depressant effects (humans): 0.3 to 1 mg/kg; Glass's A, power 25 mg/kg vs 13 mg/kg (FIG. 3C) ([1]; 10 min after injection): 3.2; Hedge's g effect-size, oscillation-power GRIN1-pre/GRIN1-post (FIG. 4E) ([1]; GRIN1 knockout, ketamine): 2.03; Hedge's g effect-size, oscillation-power HCN1-pre/HCN1-post (FIG. 4E) ([1]; HCN1 knockout, ketamine): 1.02; 1-3 Hz RSP oscillation ([1]; ketamine 25 mg/kg, widefield imaging and fiber photometry): revealed a 1-3 Hz oscillation at 25 mg/kg; Ketamine-induced oscillations ([1]; local RSP GRIN1 (NMDAR) knockout mice, four weeks after virus): significantly diminished; also recorded: partially attenuated; Ketamine-induced oscillations ([1]; local RSP HCN1 knockout mice, four weeks after virus): significantly diminished; Ketamine-induced oscillations ([1]; wild-type mice): preserved in wild-type; Hedge's g effect-size, oscillation-power WT-pre/WT-post (FIG. 4E) ([1]; wild-type, ketamine): 3.22; Duration of silent states between bursts (deep RSP neurons): ~250 ms; Duration of synchronous bursts of deep RSP neurons (deep RSP neurons): ~250 ms; Participation of units in burst events (deep RSP neurons): nearly all identified units participated in every burst event; Spikes per burst of individual units (deep RSP neurons): 5-10 spikes/burst
